# Laboratory results from patent US20220339143A1, “TAK-925 FOR USE IN TREATING NARCOLEPSY” (Takeda Pharmaceutical Company Limited, priority 2019, published 2022).
# Where two headings read alike, the source gives them in different places.
# How the values were obtained:
# Assay type in all cases: in vivo, human
# [1] = Multiple-dose PK of intravenous Compound A in patients with NT1 (Cohorts B1, B2), plasma; conditions: for clearance: read-out: CL, Mean (converted)
# Protocol: (§1) The purpose of the study was to evaluate the safety, tolerability, pharmacokinetics and pharmacodynamics of Compound A after multiple IV administration in patients with NT1. NT1 patients were evaluated in Cohort B1 and B2 (Table 19). Compound A or placebo were administered via IV infusion over 9 hours once daily for 7 days. A total of 13 patients with NT1 were treated with Compound A or placebo (4, 4, and 5 subjects in the placebo, Compound A 11 mg, and Compound A 44 mg groups, respectively). In this part, potential efficacy of Compound A was evaluated with MWT, ESS, KSS, night-time PSG (NPSG), cataplexy frequency assessment, and PGI-C as an exploratory PD assessment.
# Blood samples used for PK analysis of Compound A was collected according to Table 20. See also FIG. 12 for whole schedules of study procedures.
# patients with NT1 [2] = assay: KSS, multiple dose (Cohorts B1, B2); conditions: 9 hours postdose
# Protocol: as §1
# patients with NT1 [3] = assay: Number of cataplexy episodes (self-recorded sleep diary), multiple dose (Cohorts B1, B2); conditions: for Number of Cataplexy Episodes, Median / Number of Cataplexy Episodes, Mean: Treatment Period (Day 1-7 [until 24 hours after start of infusion])
# Protocol: as §1
# An overview of study schedule and PD testing in NT1 Patients is illustrated in FIG. 11. After screening, patients eligible for these parts had to discontinue any medication for narcolepsy including medications used for EDS or cataplexy. The medications had to be stopped for a minimum of 7 days or at least 5 half-lives of each medication, whichever was longer, before the first day of dosing (Day 1). As for a subject having possibility of getting injured due to severe cataplexy, the subject might have been confined to the site before Day −2 at a discretion of the investigator. In all cohorts of these parts, subjects underwent NPSG on Day −2 and baseline MWT sessions 4 times on Day −1 (at around 10:00, 12:00, 14:00, and 16:00). Study drug dosing via IV infusion was started at around 08:00. MWT was conducted on Day 1 at around 10:00, 12:00, 14:00, and 16:00. Subjects were allowed to take a nap on the days with no MWT assessment. At night of Day 6, the subjects underwent NPSG once again to evaluate the effect of multiple daytime dosing on night-time sleep structure. On Day 7, the subjects underwent MWT at the same hours as on Day −1. Cataplexy was to be evaluated by using the self-recorded sleep diary. The subjects were discharged from the study site on Day 8.
# [4] = human, plasma, intravenous, 11 mg, Day 7
smiles,measurement,setting,value
"COC(=O)N1CCC[C@H](NS(C)(=O)=O)[C@@H]1CO[C@H]1CC[C@@H](c2ccccc2)CC1 [Compound A, methyl (2R,3S)-3-((methylsulfonyl)amino)-2-(((cis-4-phenylcyclohexyl)oxy)methyl)piperidine-1-carboxylate]","AUCtau D, Mean","[1]; 11 mg, Day 1",15.00 ng·h/mL/mg
same,Cmax D Mean,"[1]; 11 mg, Day 1",1.660 ng/mL/mg
same,"Vax, Mean","[1]; 11 mg, Day 1",129.6 L
same,"AUCtau D, Mean","[1]; 11 mg, Day 7",16.70 ng·h/mL/mg
same,Cmax D Mean,"[1]; 11 mg, Day 7",1.868 ng/mL/mg
same,"Cmin, Mean","[1]; 11 mg, Day 7",0.3258 ng/mL
same,"PTR, Mean","[1]; 11 mg, Day 7",57.07
same,"Vx, Mean","[1]; 11 mg, Day 7",313.0 L
same,t½z Mean,"[1]; 11 mg, Day 7",3.595 h
same,"Cmin, Geo Mean","[1]; 11 mg, Day 7 (N of Geo Mean 3)",0.4061 ng/mL
same,"AUCtau D, Mean","[1]; 44 mg, Day 1",15.70 ng·h/mL/mg
same,"Vax, Mean","[1]; 44 mg, Day 1",135.0 L
same,"Vz, Mean","[1]; 44 mg, Day 1",316.2 L
same,"AUCtau D, Mean","[1]; 44 mg, Day 7",16.56 ng·h/mL/mg
same,Cmax D Mean,"[1]; 44 mg, Day 7",1.858 ng/mL/mg
same,"Cmin, Mean","[1]; 44 mg, Day 7",1.327 ng/mL
same,"PTR, Mean","[1]; 44 mg, Day 7",70.28
same,"Vx, Mean","[1]; 44 mg, Day 7",375.2 L
same,t½z Mean,"[1]; 44 mg, Day 7",4.222 h
same,drug accumulation,"[1]; QD dosing, 9-hour IV infusion daily for 7 days",no drug accumulation was observed
same,dose proportionality of mean plasma systemic exposures,"[1]; daily 9-hour IV infusions, 11 and 44 mg",generally increased in a dose proportional manner
same,AUC(0-inf),"[1]; human, plasma, intravenous, 11 mg, Day 1, read-out: AUCinf, Geo Mean",166 ng·h/mL
same,AUC(0-inf),"[1]; human, plasma, intravenous, 11 mg, Day 1, read-out: AUCinf, Mean",167 ng·h/mL
same,AUC(0-t),"[1]; human, plasma, intravenous, 11 mg, Day 1, read-out: AUClast, Geo Mean",164 ng·h/mL
same,AUC,"[1]; human, plasma, intravenous, 11 mg, Day 1, read-out: AUCtau, Geo Mean",164 ng·h/mL
same,AUC,"[1]; human, plasma, intravenous, 11 mg, Day 1, read-out: AUCtau, Mean",165 ng·h/mL
same,Cmax,"[1]; human, plasma, intravenous, 11 mg, Day 1, read-out: Cmax, Geo Mean",18.2 ng/mL
same,Cmax,"[1]; human, plasma, intravenous, 11 mg, Day 1, read-out: Cmax, Mean",18.3 ng/mL
same,AUC(0-t),"[1]; human, plasma, intravenous, 11 mg, Day 7, read-out: AUClast, Geo Mean",182 ng·h/mL
same,AUC,"[1]; human, plasma, intravenous, 11 mg, Day 7, read-out: AUCtau, Geo Mean",183 ng·h/mL
same,AUC,"[1]; human, plasma, intravenous, 11 mg, Day 7, read-out: AUCtau, Mean",184 ng·h/mL
same,Cmax at 7 days,"[1]; human, plasma, intravenous, 11 mg, Day 7, read-out: Cmax, Geo Mean",20.5 ng/mL
same,AUC(0-inf),"[1]; human, plasma, intravenous, 44 mg, Day 1, read-out: AUCinf, Mean",697 ng·h/mL
same,AUC(0-t),"[1]; human, plasma, intravenous, 44 mg, Day 1, read-out: AUClast, Geo Mean",682 ng·h/mL
same,AUC,"[1]; human, plasma, intravenous, 44 mg, Day 7, read-out: AUCtau, Geo Mean",723 ng·h/mL
same,AUC,"[1]; human, plasma, intravenous, 44 mg, Day 7, read-out: AUCtau, Mean",729 ng·h/mL
same,Cmax at 7 days,"[1]; human, plasma, intravenous, 44 mg, Day 7, read-out: Cmax, Geo Mean",81.2 ng/mL
same,Vd,"[1]; human, plasma, intravenous, 11 mg, Day 1, read-out: Vz, Mean",310 L
same,Tmax at 7 days,[1]; [4],5.17 h
same,clearance,[1]; [4],1010 mL/min
same,clearance,"[1]; human, plasma, intravenous, 44 mg, Day 1",1080 mL/min
same,Tmax,"[1]; human, plasma, intravenous, 44 mg, Day 7",4.93 h
same,AUC(0-t),"[1]; human, plasma, iv, 11 mg, Day 1, 9 h IV infusion QD, NT1, read-out: AUClast, Mean",164 ng·h/mL
same,mean change from baseline in KSS,"patients with NT1 [2]; 11 mg, Day 1 (placebo 0.0)",−3.0
same,mean change from baseline in KSS,"patients with NT1 [2]; 11 mg, Day 7 (placebo −0.3)",−2.0
same,mean change from baseline in KSS,"patients with NT1 [2]; 44 mg, Day 1 (placebo 0.0)",−4.4
same,mean change from baseline in KSS,"patients with NT1 [2]; 44 mg, Day 7 (placebo −0.3)",−4.6
same,"Number of Cataplexy Episodes (Time-matched), Median","patients with NT1 [3]; 11 mg, Day 1-7 (after infusion time up to 24 hours after start of infusion)",1.0
same,"Number of Cataplexy Episodes (Time-matched), Mean","patients with NT1 [3]; 11 mg, Day 1-7 (after infusion time up to 24 hours after start of infusion), time-matched baseline 5.8",3.0
same,"Number of Cataplexy Episodes (Time-matched), Median","patients with NT1 [3]; 11 mg, Day 1-7 (during infusion time)",0.0
same,"Number of Cataplexy Episodes (Time-matched), Mean","patients with NT1 [3]; 11 mg, Day 1-7 (during infusion time), time-matched baseline 5.8",0
same,"Number of Cataplexy Episodes (Time-matched), Mean","patients with NT1 [3]; 11 mg, Day 1-7 (during infusion time), time-matched baseline 5.8, listed as Cmpd A",0.0
same,"Number of Cataplexy Episodes, Median",patients with NT1 [3]; 11 mg,1.0
same,"Number of Cataplexy Episodes, Mean","patients with NT1 [3]; 11 mg, baseline 11.5",3.0
same,"Number of Cataplexy Episodes (Time-matched), Median","patients with NT1 [3]; 44 mg, Day 1-7 (after infusion time up to 24 hours after start of infusion)",1.0
same,"Number of Cataplexy Episodes (Time-matched), Mean","patients with NT1 [3]; 44 mg, Day 1-7 (after infusion time up to 24 hours after start of infusion), time-matched baseline 0.4",1.4
same,"Number of Cataplexy Episodes (Time-matched), Median","patients with NT1 [3]; 44 mg, Day 1-7 (during infusion time)",0.0
same,"Number of Cataplexy Episodes (Time-matched), Mean","patients with NT1 [3]; 44 mg, Day 1-7 (during infusion time), time-matched baseline 3.2",0
same,"Number of Cataplexy Episodes (Time-matched), Mean","patients with NT1 [3]; 44 mg, Day 1-7 (during infusion time), time-matched baseline 3.2, listed as Cmpd A",0.0
same,"Number of Cataplexy Episodes, Median",patients with NT1 [3]; 44 mg,1.0
same,"Number of Cataplexy Episodes, Mean","patients with NT1 [3]; 44 mg, baseline 3.6",1.4
